From US11180482B2, “Anilinopyrimidines as haematopoietic progenitor kinase 1 (HPK1) inhibitors” (Ariad Pharmaceuticals, Inc., priority 2016, dated 2021) come the findings set out here.

Sequence of Wild Type HPK1 (MAP4K1) Kinase (Q92918 whole entry, species assumed): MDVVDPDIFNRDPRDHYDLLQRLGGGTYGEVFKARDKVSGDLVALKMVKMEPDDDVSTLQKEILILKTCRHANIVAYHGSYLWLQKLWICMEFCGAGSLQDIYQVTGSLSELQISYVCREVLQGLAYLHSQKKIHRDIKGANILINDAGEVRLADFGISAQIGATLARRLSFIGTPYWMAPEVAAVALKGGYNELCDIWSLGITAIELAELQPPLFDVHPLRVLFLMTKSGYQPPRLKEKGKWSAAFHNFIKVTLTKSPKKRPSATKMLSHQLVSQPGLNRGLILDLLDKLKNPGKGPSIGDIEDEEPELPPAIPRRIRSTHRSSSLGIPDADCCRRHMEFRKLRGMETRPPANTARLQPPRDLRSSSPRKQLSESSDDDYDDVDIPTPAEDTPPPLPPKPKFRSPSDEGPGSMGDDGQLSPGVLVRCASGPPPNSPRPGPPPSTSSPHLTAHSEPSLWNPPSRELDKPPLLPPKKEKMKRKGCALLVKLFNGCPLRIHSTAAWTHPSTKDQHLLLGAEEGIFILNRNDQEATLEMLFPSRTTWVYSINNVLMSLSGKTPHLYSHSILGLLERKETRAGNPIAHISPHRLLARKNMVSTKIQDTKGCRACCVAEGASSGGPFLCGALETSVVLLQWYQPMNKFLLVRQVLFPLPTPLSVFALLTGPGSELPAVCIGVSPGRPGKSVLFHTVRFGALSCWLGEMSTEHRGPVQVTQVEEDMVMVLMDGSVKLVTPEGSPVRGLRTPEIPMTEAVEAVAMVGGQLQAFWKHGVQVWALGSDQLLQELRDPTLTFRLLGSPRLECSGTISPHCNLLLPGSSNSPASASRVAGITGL

The target of this test is Wild Type HPK1 (MAP4K1) Kinase (Homo sapiens (Human), UniProt Q92918). The experiment in a line: HPK1 Assay (Caliper EZ reader, fluorescein tagged peptide substrate). It counts as biochemical. The following applies: ATP 500 micromolar, kinase 6 nM, pH 7.4. Here is the method:
The enzymatic activity of Wild Type HPK1 (MAP4K1) Kinase was measured in the presence or absence of an inhibitor compound of the present disclosure by preparation of a reaction mixture containing a fluorescein tagged peptide (2 micromolar final concentration), ATP (Adenosine Triphosphate, 500 micromolar final concentration) and Wild Type kinase (6 nM final concentration) in a buffer system comprising 50 mM HEPES (Buffer), 3 mM MgCl2, 5% w/v Trehalose, 0.01% Brij 35 (Detergent), 0.1% Pluronic F127 (Surfactant), 0.1 mM EDTA (Ethylenediaminetetraacetic acid), 0.1 mM EGTA (ethylene glycol-bis(β-aminoethyl ether)-N,N,N′,N′-tetraacetic acid) and 1 mM DTT (Dithiothreitol) and at a pH of 7.4. The reactions were quenched by the addition of EDTA to a final concentration of 25 mM. A Caliper EZ reader was used to measure the extent of substrate to product conversion.
The peptide substrate used in the HPK1 assay was designed based on the amino acid sequence surrounding serine residue 376 of SLP76-Lymphocyte cytosolic protein 2 (a known intracellular substrate of HPK1). This sequence SSFPQSAsLPPYFSQ was modified as follows for use in Caliper assays of HPK1: the serine residues on either side of serine 376 were replaced with alanine, three lysine residues were added at the […] and a fluorescein tag (FAM) was attached to the […] to produce the sequence, FAM-FPQAAsLPPYFAKKK.
As a reminder, the IC50 is the concentration at which inhibition is half-maximal. Higher therefore signals weaker potency in that assay. The molecule `COc1cc2c(cc1Nc1ncc(Cl)c(Nc3ccccc3P(C)(C)=O)n1)C(C)N(C)CC2` (centres unmarked) [Example I-29, (2-((5-chloro-2-((6-methoxy-1,2-dimethyl-1,2,3,4-tetrahydroisoquinolin-7-yl)amino)pyrimidin-4-yl)amino)phenyl)dimethylphosphine oxide] registered an IC50 of under 5 nM.

`COc1cc2c(cc1Nc1ncc(Cl)c(Nc3ccccc3P(C)(C)=O)n1)C(=O)NCC2` [Example I-33, 7-((5-chloro-4-((2-(dimethylphosphoryl)phenyl)amino)pyrimidin-2-yl)amino)-6-methoxy-3,4-dihydroisoquinolin-1(2H)-one] registered an IC50 of 100 to 10000 nM.

In turn, `COc1cc2c(cc1Nc1ncc(Cl)c(Nc3ccccc3P(C)(C)=O)n1)C(=O)N(C)CCC2` [Example I-34, 8-((5-chloro-4-((2-(dimethylphosphoryl)phenyl)amino)pyrimidin-2-yl)amino)-7-methoxy-2-methyl-2,3,4,5-tetrahydro-1H-benzo[c]azepin-1-one] came in with an IC50 of 100 to 10000 nM.

The molecule `COc1cc2c(cc1Nc1ncc(Cl)c(Nc3ccccc3P(C)(C)=O)n1)CN(C)CCC2` [Example I-35, (2-((5-chloro-2-((7-methoxy-2-methyl-2,3,4,5-tetrahydro-1H-benzo[c]azepin-8-yl)amino)pyrimidin-4-yl)amino)phenyl)dimethylphosphine oxide] yielded an IC50 of 100 to 10000 nM.

In turn, `CCOc1cc2c(cc1Nc1ncc(Cl)c(Nc3ccccc3P(C)(C)=O)n1)CN(C)CC2` [Example I-36, (2-((5-chloro-2-((6-ethoxy-2-methyl-1,2,3,4-tetrahydroisoquinolin-7-yl)amino)pyrimidin-4-yl)amino)phenyl)dimethylphosphine oxide] came in with a 50% inhibitory concentration (IC50) of 10 to 100 nM.

On to `CP(C)(=O)c1ccccc1Nc1nc(Nc2cc3c(cc2C(F)(F)F)CCNC3)ncc1Cl` [Example I-37, (2-((5-Chloro-2-((6-(trifluoromethyl)-1,2,3,4-tetrahydroisoquinolin-7-yl)amino)pyrimidin-4-yl)amino)phenyl)dimethylphosphine oxide], for which the concentration for half-maximal inhibition (IC50) was in the range of 10 to 100 nM.

Turning to `COc1cc2c(cc1Nc1ncc(Cl)c(Nc3ccccc3P(C)(C)=O)n1)CCNC2` [Example I-38, (2-((5-chloro-2-((7-methoxy-1,2,3,4-tetrahydroisoquinolin-6-yl)amino)pyrimidin-4-yl)amino)phenyl)dimethylphosphine oxide], the IC50 was under 5 nM.

For `[2H]C1([2H])NCCc2cc(OC)c(Nc3ncc(Cl)c(Nc4ccccc4P(C)(C)=O)n3)cc21` [Example I-39, (2-((5-chloro-2-((6-methoxy-1,2,3,4-tetrahydroisoquinolin-7-yl-1,1-d2)amino)pyrimidin-4-yl)amino)phenyl)dimethyl-phosphine oxide], the IC50 is under 5 nM.

Take `COc1cc2c(cc1Nc1ncc(Cl)c(Nc3ccccc3P(C)(C)=O)n1)CNCC2(C)C` [Example I-40, (2-((5-chloro-2-((6-methoxy-4,4-dimethyl-1,2,3,4-tetrahydroisoquinolin-7-yl)amino)pyrimidin-4-yl)amino)phenyl)dimethylphosphine oxide]: the IC50 was under 5 nM.

`COc1cc2c(cc1Nc1ncc(Cl)c(Nc3ccccc3P(C)(C)=O)n1)CNCC2` [Example I-41, (2-((5-chloro-2-((6-methoxy-1,2,3,4-tetrahydroisoquinolin-7-yl)amino)pyrimidin-4-yl)amino)phenyl)dimethylphosphine oxide] gave an IC50 of under 5 nM.

Molecule `COc1cc2c(cc1Nc1ncc(Cl)c(Nc3ccccc3P(C)(C)=O)n1)CN(C1COC1)CC2` [Example I-42, (2-((5-Chloro-2-((6-methoxy-2-(oxetan-3-yl)-1,2,3,4-tetrahydroisoquinolin-7-yl)amino)pyrimidin-4-yl)amino)phenyl)dimethylphosphine oxide] came in with an IC50 of 10 to 100 nM.

In the case of `[2H]C1([2H])c2cc(Nc3ncc(Cl)c(Nc4ccccc4P(C)(C)=O)n3)c(OC)cc2CCN1C(C)C` [Example I-43, (2-((5-chloro-2-((2-isopropyl-6-methoxy-1,2,3,4-tetrahydroiso-quinolin-7-yl-1,1-d2)amino)pyrimidin-4-yl)amino)phenyl)-dimethylphosphine oxide], the IC50 was under 5 nM.

In turn, `COc1cc2c(cc1Nc1ncc(Cl)c(Nc3ccccc3P(C)(C)=O)n1)CN(C)CC2(C)C` [Example I-44, (2-((5-chloro-2-((6-methoxy-2,4,4-trimethyl-1,2,3,4-tetrahydroisoquinolin-7-yl)amino)pyrimidin-4-yl)amino)phenyl)-dimethylphosphine oxide] registered an IC50 of 5 to 10 nM.

Take `CN1CCc2cc(C(F)(F)F)c(Nc3ncc(Cl)c(Nc4ccccc4P(C)(C)=O)n3)cc2C1` [Example I-45, (2-((5-chloro-2-((2-methyl-6-(trifluoromethyl)-1,2,3,4-tetrahydroiso-quinolin-7-yl)amino)-pyrimidin-4-yl)-amino)phenyl)dimethylphosphine oxide]: the half-inhibitory concentration (IC50) is 100 to 10000 nM.

The molecule `C=Cc1cnc(Nc2cc3c(cc2OC)CCN(C)C3)nc1Nc1ccccc1P(C)(C)=O` [Example I-46, (2-((2-((6-Methoxy-2-methyl-1,2,3,4-tetrahydroisoquinolin-7-yl)amino)-5-vinylpyrimidin-4-yl)amino)phenyl)dimethylphosphine oxide] yielded an IC50 of under 5 nM.

For the molecule `COc1cc2c(cc1Nc1ncc(-c3cnn(C)c3)c(Nc3ccccc3P(C)(C)=O)n1)CN(C)CC2` [Example I-47, (2-((2-((6-methoxy-2-methyl-1,2,3,4-tetrahydroisoquinolin-7-yl)amino)-5-(1-methyl-1H-pyrazol-4-yl)pyrimidin-4-yl)amino)phenyl)dimethylphosphine oxide], the IC50 was in the range of 100 to 10000 nM.

In turn, `CCc1cnc(Nc2cc3c(cc2OC)CCN(C)C3)nc1Nc1ccccc1P(C)(C)=O` [Example I-48, (2-((5-Ethyl-2-((6-methoxy-2-methyl-1,2,3,4-tetrahydroisoquinolin-7-yl)amino)pyrimidin-4-yl)amino)phenyl)dimethylphosphine oxide] gave an IC50 of 5 to 10 nM.

With `COc1cc2c(cc1Nc1ncc(Cl)c(Nc3ccccc3S(=O)(=O)C(C)C)n1)CN(C)CC2` [II-1, 5-chloro-N^4-(2-(isopropylsulfonyl)phenyl)-N^2-(6-methoxy-2-methyl-1,2,3,4-tetrahydroisoquinolin-7-yl)pyrimidine-2,4-diamine], the IC50 was under 5 nM.

As for `COc1cc2c(cc1Nc1ncc(Cl)c(Nc3ccccc3S(=O)(=O)N(C)C)n1)CN(C)CC2` [II-2, 2-((5-chloro-2-((6-methoxy-2-methyl-1,2,3,4-tetrahydroisoquinolin-7-yl)amino)pyrimidin-4-yl)amino) N,N-dimethylbenzenesulfonamide], the IC50 was under 5 nM.

`CNC(=O)c1ccccc1Nc1nc(Nc2cc3c(cc2OC)CCN(C)C3)ncc1Cl` [II-3, 2-((5-chloro-2-((6-methoxy-2-methyl-1,2,3,4-tetrahydroisoquinolin-7-yl)amino)pyrimidin-4-yl)amino)-N-methylbenzamide] showed an IC50 of 5 to 10 nM.
